Among the test systems are HOP-62; RXF 393; NCI-H226; K562; SK-MEL-2; MOLT-4; UACC-257; NCI/ADR-RES; SK-MEL-28; Hs-578T; SK-MEL-5; BT-549; SF-295; HL-60; RPMI-8226; EKVX; CAKI-1; CCRF-CEM; PC-3; SNB-75.
Holding throughout (assay): DTP human tumour cell line panel, 48 h

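Cultured in 96-well plates, cells were exposed to test compound for 48 hours across five concentrations. GI50 = concentration required for 50% inhibition of growth.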 Activity calls are given as the source filed them. Cut-off read from the data, not from the text of the source: active = GI50 up to about 1.1 µM and inactive = higher. A value given as a limit tells only on which side of the number the result lay.

A word on the GI50: it is the concentration that inhibits growth by half.

In the case of `COc1cc(C(=O)Nc2nnc(S(N)(=O)=O)s2)cc(OC)c1OC`, the GI50 with HOP-62, in the test on RXF 393, in the test on NCI-H226, in the test on K562, in the test on SK-MEL-2 and in the test on MOLT-4 was > 100 µM (inactive) each time. Further, the GI50 in the test with UACC-257, in the test with NCI/ADR-RES, with SK-MEL-28, with Hs-578T, in the test with SK-MEL-5 and in the test with BT-549 was > 100 µM (inactive) in each case. In addition, the GI50 in the test with SF-295, in the test on HL-60, with RPMI-8226, in the test on EKVX and in the test with CAKI-1 was > 100 µM (inactive) each time.
For `N#Cc1ccc(Oc2nc3ccccc3nc2-c2ccccc2)cc1`, the GI50 with HOP-62, with RXF 393, with NCI-H226, in the test on K562, with SK-MEL-2 and in the test on MOLT-4 was > 100 µM (inactive) in each case. The GI50 in the test on CCRF-CEM, in the test on UACC-257, in the test with SK-MEL-28, in the test on Hs-578T, with SK-MEL-5 and with BT-549 was > 100 µM (inactive) in each case. For the same compound, the GI50 with SF-295, with HL-60, in the test with RPMI-8226, in the test on EKVX, in the test with PC-3 and in the test on CAKI-1 was > 100 µM (inactive) throughout.
As for `O=c1oc2ccccc2c(-c2ccc(O)cc2)c1Oc1ccccc1`, the GI50 in the test on HOP-62 was 24.1 µM (inactive); with RXF 393, 23 µM (inactive); in the test with NCI-H226 it was > 47 µM (inactive); in the test on K562 it was 34.6 µM (inactive); with SK-MEL-2 it was 7.1 µM (inactive); in the test with MOLT-4, 28.8 µM (inactive). The GI50 in the test with CCRF-CEM is 25.4 µM (inactive); in the test with UACC-257 it was 7.83 µM (inactive); in the test with SK-MEL-28, 18.8 µM (inactive); in the test with Hs-578T it was 7.5 µM (inactive); in the test on SK-MEL-5, 14.1 µM (inactive); in the test on BT-549, 3.33 µM (inactive). Moreover, the GI50 was 22 µM (inactive) in the test on SF-295; 54 µM (inactive) with HL-60; 28.1 µM (inactive) in the test on RPMI-8226; 15.7 µM (inactive) in the test with EKVX; 8.49 µM (inactive) in the test with PC-3; > 46.8 µM (inactive) with SNB-75. Besides, in the test on CAKI-1, the GI50 was 24.5 µM (inactive).
With `CCC(C#N)NCc1ccc(CNC(C#N)CC)cc1` (stereo not given), the GI50 in the test on RXF 393, in the test on NCI-H226, with K562, in the test with SK-MEL-2, with MOLT-4 and in the test on CCRF-CEM was > 100 µM (inactive) each time. For the same compound, the GI50 in the test with UACC-257, with NCI/ADR-RES, in the test with SK-MEL-28, in the test with Hs-578T, in the test with SK-MEL-5 and in the test with BT-549 was > 100 µM (inactive) each time. The GI50 in the test on SF-295, with HL-60, in the test on EKVX, in the test with PC-3 and in the test with CAKI-1 was > 100 µM (inactive) throughout.
On to `Cc1ccc(C(=O)N/N=C(\N=N\c2ccccc2Cl)c2ccc(N(C)C)cc2)cc1`, for which the GI50 in the test on NCI-H226 is 60.8 µM (inactive); in the test with K562, 17.1 µM (inactive); with SK-MEL-2, 54.6 µM (inactive); with MOLT-4, 20 µM (inactive); in the test with CCRF-CEM, 16.6 µM (inactive); with UACC-257, 27.5 µM (inactive). The GI50 was 27.3 µM (inactive) in the test on NCI/ADR-RES; > 100 µM (inactive) with SK-MEL-28; > 100 µM (inactive) in the test on Hs-578T; 21.3 µM (inactive) in the test with SK-MEL-5; 29.3 µM (inactive) in the test with BT-549; 28.8 µM (inactive) with SF-295. The GI50 in the test on HL-60 is 14.1 µM (inactive); in the test with RPMI-8226, 23.7 µM (inactive); in the test on EKVX it was 27.2 µM (inactive); with PC-3, 49 µM (inactive); with CAKI-1 it was 30.5 µM (inactive).
With `c1ccc2c(c1)SC1=Nc3sc4ccccc4[n+]3CN12`, the GI50 in the test on HOP-62 was 21.9 µM (inactive); in the test on K562 it was 6.12 µM (inactive); in the test on SK-MEL-2, 11.4 µM (inactive); in the test on MOLT-4, 11.7 µM (inactive); in the test with CCRF-CEM it was 16.6 µM (inactive); in the test with UACC-257, 30.7 µM (inactive). Also, the GI50 is 30.9 µM (inactive) in the test with NCI/ADR-RES; 13.7 µM (inactive) with Hs-578T; 2.52 µM (inactive) with SK-MEL-5; 22.8 µM (inactive) in the test on BT-549; 29.4 µM (inactive) in the test with SF-295; 32.1 µM (inactive) in the test with HL-60. Also, the GI50 was 21.8 µM (inactive) in the test with RPMI-8226, 2.15 µM (inactive) in the test on EKVX, 24.8 µM (inactive) in the test with PC-3 and 14.2 µM (inactive) with CAKI-1.
Turning to `CCOC(=O)N1CCNCCN(C(=O)OCC)CCNCC1`, the GI50 in the test with HOP-62, in the test on RXF 393, with NCI-H226, in the test with K562, with SK-MEL-2 and with MOLT-4 was > 100 µM (inactive) in each case. Besides, the GI50 in the test with CCRF-CEM, in the test on UACC-257, with NCI/ADR-RES, with SK-MEL-28, with Hs-578T and in the test with SK-MEL-5 was > 100 µM (inactive) in each case. Moreover, the GI50 in the test on BT-549, with SF-295, with HL-60, with RPMI-8226, with EKVX and in the test with PC-3 was > 100 µM (inactive) in each case. For the same compound, the GI50 in the test with CAKI-1 is > 100 µM (inactive).
For the compound `Nc1ccc(Oc2ccc(C3(c4ccc(Oc5ccc(N)c(O)c5)cc4)C4CC5C6CC7CC5C3C(C7)C6C4)cc2)cc1O`, the GI50 in the test with HOP-62 is 1.73 µM (inactive); in the test with RXF 393, 1.7 µM (inactive); with NCI-H226, 2.72 µM (inactive); in the test on K562 it was 2.19 µM (inactive); in the test with SK-MEL-2 it was 2.36 µM (inactive); in the test with MOLT-4 it was 2.07 µM (inactive). Also, the GI50 with CCRF-CEM was 16 µM (inactive); with UACC-257, 2.5 µM (inactive); in the test on NCI/ADR-RES it was 5.62 µM (inactive); in the test on Hs-578T it was 3.13 µM (inactive); in the test with SK-MEL-5, 3.86 µM (inactive); with BT-549 it was 4.15 µM (inactive). For the same compound, the GI50 with SF-295 is 2.77 µM (inactive); in the test with HL-60, 2.44 µM (inactive); in the test with RPMI-8226, 1.63 µM (inactive); in the test on EKVX it was 1.38 µM (inactive); in the test on PC-3, 1.86 µM (inactive); with CAKI-1 it was 2.49 µM (inactive).
For `C/C(=N\O)c1cccc(Nc2c3ccccc3nc3occc23)c1`, the GI50 was 3.13 µM (inactive) in the test with HOP-62; 14.1 µM (inactive) in the test with NCI-H226; 3.58 µM (inactive) with K562; 4.18 µM (inactive) with SK-MEL-2; 4.25 µM (inactive) in the test on MOLT-4; 3.4 µM (inactive) with CCRF-CEM. The GI50 in the test with UACC-257 is 7.03 µM (inactive); with NCI/ADR-RES it was 2.3 µM (inactive); in the test on SK-MEL-28 it was 4.02 µM (inactive); with Hs-578T it was 8.61 µM (inactive); in the test with SK-MEL-5, 3.07 µM (inactive); in the test on BT-549, 3.29 µM (inactive). The GI50 in the test with SF-295 is 4.24 µM (inactive); with HL-60, 4.74 µM (inactive); in the test with RPMI-8226 it was 3.07 µM (inactive); with EKVX, 5.86 µM (inactive); with PC-3 it was 17.7 µM (inactive); in the test with CAKI-1, 1.96 µM (inactive).
Regarding `COc1cc2nc(Cl)nc(NS(=O)(=O)c3cc4ccccc4s3)c2cc1OC`, the GI50 was 31.5 µM (inactive) with HOP-62; 16.6 µM (inactive) with RXF 393; 36.8 µM (inactive) in the test on NCI-H226; 18.2 µM (inactive) in the test with K562; 24.5 µM (inactive) in the test with SK-MEL-2; 12.1 µM (inactive) with CCRF-CEM. Further, the GI50 with UACC-257 was 32.4 µM (inactive); with NCI/ADR-RES it was 39.8 µM (inactive); with SK-MEL-28, 0.0335 µM (active); in the test on Hs-578T, 40.6 µM (inactive); in the test on SK-MEL-5 it was 19.1 µM (inactive); in the test with BT-549, 22.9 µM (inactive). Also, the GI50 was 33.8 µM (inactive) in the test on SF-295; 18.4 µM (inactive) in the test on RPMI-8226; 25 µM (inactive) in the test with EKVX; 26.1 µM (inactive) in the test with PC-3; 23.1 µM (inactive) with SNB-75; 33.3 µM (inactive) with CAKI-1.
Turning to `Oc1[nH]c(NCc2ccc(Cl)cc2)nc2ncnc1-2`, the GI50 in the test on HOP-62, in the test on RXF 393, with NCI-H226, with K562, with SK-MEL-2 and in the test with MOLT-4 was > 100 µM (inactive) in each case. Also, the GI50 with CCRF-CEM was > 100 µM (inactive); in the test with UACC-257, > 100 µM (inactive); with NCI/ADR-RES it was > 100 µM (inactive); with Hs-578T, 44.8 µM (inactive); with SK-MEL-5, > 100 µM (inactive); with BT-549 it was > 100 µM (inactive). For the same compound, the GI50 with SF-295, in the test on RPMI-8226, in the test on EKVX, in the test with PC-3, in the test with SNB-75 and with CAKI-1 was > 100 µM (inactive) throughout.

(Values after ChEMBL document CHEMBL1201862, “PubChem BioAssay data set” (2004).)
